# Experimental data reported in patent US12383510B2 (Starton Therapeutics, Inc., priority 2020, dated 2025).
# Entries after “also recorded” stand apart in the source; their conditions may differ. Marks after values point to notes of the source that are not given here.
# How the values were obtained:
# [1] = tested on: healthy female volunteers; experiment: Phase 1 study: antiemetic effect of oral olanzapine doses following apomorphine challenge on day 8; format: in vivo, human; conditions: for Nausea Score 1-120 min.: apomorphine 0.05 mg/kg, scale 1=no nausea, 10=severe nausea
# Experimental: Twenty-four healthy female volunteers were enrolled. Four active-treatment groups and a cohort of placebo-treated subjects were evaluated.
# Subjects were administered study drug once daily for 8 days. During this period, subjects maintained a study diary of their side effects. The subject diary was used to collect on a daily basis any adverse events including an assessment of the presence and/or intensity of sedation on a numeric scale where 1=no sedation and 10=excessive sedation.
# On the 8th day, subjects were administered apomorphine at a dose of 0.05 mg/kg and assessed over 6 hours. During this period, subjects were asked to record episodes of nausea on a numeric scale every 15 minutes for the duration of assessment. The intensity of nausea was captured using a 1-10 rating scale where 1=no nausea and 10=severe nausea. Emesis intensity was also captured where 1=no emesis and 10=severe emesis. Episodes of retching or emesis were collected and measured for the absolute number of retches or vomits during the collection period and documented for the time of the specific event following the administration of the apomorphine.
# clinical = conditions: human, plasma, oral
# [2] = oral olanzapine 2 mg a day, apomorphine challenge
# [3] = oral olanzapine 4 mg a day, apomorphine challenge
# [4] = oral olanzapine 6 mg a day, apomorphine challenge
# [5] = oral olanzapine 8 mg a day, apomorphine challenge
structure (smiles),measurement,setting,value
"Cc1cc2c(s1)Nc1ccccc1N=C2N1CCN(C)CC1 [olanzapine, 2-methyl-10-(4-methyl-1-piperazinyl)-4H-thieno-[2,3-b][1,5]benzo-diazepine]","Nausea severity scores during 0-120 min following apomorphine challenge, comparison with placebo",[1]; 2 mg olanzapine steady state dose,not significantly different than placebo
same,"Nausea severity scores during 0-120 min following apomorphine challenge, comparison with placebo","[1]; 4 mg olanzapine steady state dose, p<0.05",significantly different than placebo
same,"Maximum intensity of nausea, comparison between doses","[1]; 4 mg, 6 mg and 8 mg dose, apomorphine challenge",no different
same,"Nausea severity scores during 0-120 min following apomorphine challenge, comparison with placebo","[1]; 6 mg olanzapine steady state dose, p<0.05",significantly different than placebo
same,"Nausea severity scores during 0-120 min following apomorphine challenge, comparison with placebo",[1]; 8 mg olanzapine steady state dose,not different from the placebo control; also recorded: not significantly different than placebo
same,Nausea Score 1-120 min.,[1]; oral olanzapine 2 mg a day for 8 days,6**
same,Nausea Score 1-120 min. (severity in words),[1]; [2],Moderate
same,Retching (incidence),[1]; [2],40%
same,Vomiting (incidence),[1]; [2],40%
same,Nausea Score 1-120 min.,[1]; oral olanzapine 4 mg a day for 8 days,3.4 #
same,Nausea Score 1-120 min. (severity in words),[1]; [3],Mild
same,Retching (incidence),[1]; [3],0%
same,Vomiting (incidence),[1]; [3],20%
same,Nausea Score 1-120 min.,[1]; oral olanzapine 6 mg a day for 8 days,3.7 #
same,Nausea Score 1-120 min. (severity in words),[1]; [4],Mild
same,Retching (incidence),[1]; [4],0%
same,Vomiting (incidence),[1]; [4],0%
same,Nausea Score 1-120 min.,[1]; oral olanzapine 8 mg a day for 8 days,5**
same,Nausea Score 1-120 min. (severity in words),[1]; [5],Mild
same,Retching (incidence),[1]; [5],20%
same,Vomiting (incidence),[1]; [5],20%
same,concentration at 1 day,clinical; 4 mg a day,5 ng/mL
same,concentration at 1 day,clinical; 6 mg a day,8 ng/mL
